This note sets out measurements from patent US20100267616A1, “ACUTE R[…]” (ImmuneRegen Biosciences, Inc., priority 2003, published 2010).

The assay concerns diesel fuel smoke lung injury (model of ARDS and SARS). Also on record: species or system rats and rabbits. Conditions: in vivo, iv.

Sar^9, Met (02) 11-Substance P: the 6-keto-PGF1α entry is recorded as “decreased”, the PGE2 entry was “decreased”, the clara cell necrosis result is on record as “attenuated” and the “damage to the alveolar-capillary barrier membrane” value is on record as “attenuates”. The “pulmonary alveolar macrophage number” value is recorded as “reduced”.
